Results published in the supplement of paper PMC10307832.

Legend:
Assay in all cases: relative viability (nuclei count vs DMSO), 5 days (fraction); higher = more cells survive
[1] = compound: NC1(c2ccc(-c3nc4ccn5c(=O)[nH]nc5c4cc3-c3ccccc3)cc2)CCC1 [MK-2206] + COc1cc2c(Oc3ccc(NC(=O)C4(C(=O)Nc5ccc(F)cc5)CC4)cc3F)ccnc2cc1OCCCN1CCOCC1 [Foretinib] (partner 0.25 µM)
Outline: (§1)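 Lung cancer cell lines were pin-tool dosed in 1536-well plates on the day after seeding, with either a lone drug or a fixed anchor-drug dose plus five library-drug doses (not always all listed) in √10 steps. Nuclei were counted on 4× images after 5 days. Relative viability is the ratio of treated-well to vehicle-well nuclei counts, with each value a median of duplicate plates.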

[2] = compound: CS(=O)(=O)N1CCN(Cc2cc3nc(-c4cccc5[nH]ncc45)nc(N4CCOCC4)c3s2)CC1 [Pictilisib] + Cc1nc(Nc2ncc(C(=O)Nc3c(C)cccc3Cl)s2)cc(N2CCN(CCO)CC2)n1 [Dasatinib] (partner 0.075 µM)
Outline: as §1

[3] = compound: CS(=O)(=O)N1CCN(Cc2cc3nc(-c4cccc5[nH]ncc45)nc(N4CCOCC4)c3s2)CC1 [Pictilisib] + Cc1nc(NC(=O)N2CCC[C@H]2C(N)=O)sc1-c1ccnc(C(C)(C)C(F)(F)F)c1 [Alpelisib] (partner 2 µM)
Outline: as §1

[4] = compound: NC1(c2ccc(-c3nc4ccn5c(=O)[nH]nc5c4cc3-c3ccccc3)cc2)CCC1 [MK-2206] + Cc1cc(Nc2cc(N3CCN(C)CC3)nc(Sc3ccc(NC(=O)C4CC4)cc3)n2)n[nH]1 [Tozasertib] (partner 0.1 µM)
Outline: as §1

[5] = compound: NC1(c2ccc(-c3nc4ccn5c(=O)[nH]nc5c4cc3-c3ccccc3)cc2)CCC1 [MK-2206] + O=C(CCCCCCC(=O)Nc1ccccc1)NO [Vorinostat] (partner 1 µM)
Outline: as §1

201T
relative viability ([1]; first compound 0.01 µM): 1.1 | relative viability ([1]; first compound 0.03162 µM): 1.2 | relative viability ([1]; first compound 0.3162 µM): 1.13 | relative viability ([1]; first compound 1 µM): 1.1 | relative viability ([2]; first compound 0.02 µM): 0.552 | relative viability ([2]; first compound 0.06325 µM): 0.506 | relative viability ([2]; first compound 0.6325 µM): 0.464 | relative viability ([2]; first compound 2 µM): 0.276 | relative viability ([3]; first compound 0.02 µM): 1.01 | relative viability ([3]; first compound 0.06325 µM): 1.02 | relative viability ([3]; first compound 0.6325 µM): 0.979 | relative viability ([3]; first compound 2 µM): 0.773 | relative viability ([4]; first compound 0.01 µM): 0.962 | relative viability ([4]; first compound 0.03162 µM): 0.931 | relative viability ([4]; first compound 0.3162 µM): 0.98 | relative viability ([4]; first compound 1 µM): 0.948 | relative viability ([5]; first compound 0.01 µM): 0.963 | relative viability ([5]; first compound 0.03162 µM): 1.06 | relative viability ([5]; first compound 0.3162 µM): 0.988 | relative viability ([5]; first compound 1 µM): 1.09

NCI-H1437
relative viability ([1]; first compound 0.01 µM): 1.19 | relative viability ([1]; first compound 0.03162 µM): 1.27 | relative viability ([1]; first compound 0.3162 µM): 1.35 | relative viability ([1]; first compound 1 µM): 1.35 | relative viability ([2]; first compound 0.02 µM): 0.445 | relative viability ([2]; first compound 0.06325 µM): 0.386 | relative viability ([2]; first compound 0.6325 µM): 0.255 | relative viability ([2]; first compound 2 µM): 0.178 | relative viability ([3]; first compound 0.02 µM): 0.932 | relative viability ([3]; first compound 0.06325 µM): 0.912 | relative viability ([3]; first compound 0.6325 µM): 0.68 | relative viability ([3]; first compound 2 µM): 0.566 | relative viability ([4]; first compound 0.01 µM): 0.408 | relative viability ([4]; first compound 0.03162 µM): 0.425 | relative viability ([4]; first compound 0.3162 µM): 0.396 | relative viability ([4]; first compound 1 µM): 0.349 | relative viability ([5]; first compound 0.01 µM): 0.879 | relative viability ([5]; first compound 0.03162 µM): 0.846 | relative viability ([5]; first compound 0.3162 µM): 0.964 | relative viability ([5]; first compound 1 µM): 0.821

A-427
relative viability ([1]; first compound 0.01 µM): 1.05 | relative viability ([1]; first compound 0.03162 µM): 1.2 | relative viability ([1]; first compound 0.3162 µM): 1.16 | relative viability ([1]; first compound 1 µM): 1.15 | relative viability ([2]; first compound 0.02 µM): 0.666 | relative viability ([2]; first compound 0.06325 µM): 0.616 | relative viability ([2]; first compound 0.6325 µM): 0.648 | relative viability ([2]; first compound 2 µM): 0.347 | relative viability ([3]; first compound 0.02 µM): 1.13 | relative viability ([3]; first compound 0.06325 µM): 1.09 | relative viability ([3]; first compound 0.6325 µM): 1.06 | relative viability ([3]; first compound 2 µM): 1.04 | relative viability ([4]; first compound 0.01 µM): 0.218 | relative viability ([4]; first compound 0.03162 µM): 0.197 | relative viability ([4]; first compound 0.3162 µM): 0.191 | relative viability ([4]; first compound 1 µM): 0.207 | relative viability ([5]; first compound 0.01 µM): 0.871 | relative viability ([5]; first compound 0.03162 µM): 0.877 | relative viability ([5]; first compound 0.3162 µM): 0.916 | relative viability ([5]; first compound 1 µM): 0.869

HCC-366
relative viability ([1]; first compound 0.01 µM): 0.924 | relative viability ([1]; first compound 0.03162 µM): 1.03 | relative viability ([1]; first compound 0.3162 µM): 0.869 | relative viability ([1]; first compound 1 µM): 0.975 | relative viability ([2]; first compound 0.02 µM): 0.537 | relative viability ([2]; first compound 0.06325 µM): 0.566 | relative viability ([2]; first compound 0.6325 µM): 0.193 | relative viability ([2]; first compound 2 µM): 0.0747 | relative viability ([3]; first compound 0.02 µM): 0.452 | relative viability ([3]; first compound 0.06325 µM): 0.386 | relative viability ([3]; first compound 0.6325 µM): 0.335 | relative viability ([3]; first compound 2 µM): 0.174 | relative viability ([4]; first compound 0.01 µM): 0.159 | relative viability ([4]; first compound 0.03162 µM): 0.0953 | relative viability ([4]; first compound 0.3162 µM): 0.165 | relative viability ([4]; first compound 1 µM): 0.0632 | relative viability ([5]; first compound 0.01 µM): 0.341 | relative viability ([5]; first compound 0.03162 µM): 0.448 | relative viability ([5]; first compound 0.3162 µM): 0.26 | relative viability ([5]; first compound 1 µM): 0.254

BEN
relative viability ([1]; first compound 0.01 µM): 0.687 | relative viability ([1]; first compound 0.03162 µM): 0.76 | relative viability ([1]; first compound 0.3162 µM): 0.709 | relative viability ([1]; first compound 1 µM): 0.606 | relative viability ([2]; first compound 0.02 µM): 0.351 | relative viability ([2]; first compound 0.06325 µM): 0.3 | relative viability ([2]; first compound 0.6325 µM): 0.355 | relative viability ([2]; first compound 2 µM): 0.285 | relative viability ([3]; first compound 0.02 µM): 0.813 | relative viability ([3]; first compound 0.06325 µM): 1.08 | relative viability ([3]; first compound 0.6325 µM): 1.03 | relative viability ([3]; first compound 2 µM): 0.704 | relative viability ([4]; first compound 0.01 µM): 0.554 | relative viability ([4]; first compound 0.03162 µM): 0.621 | relative viability ([4]; first compound 0.3162 µM): 0.416 | relative viability ([4]; first compound 1 µM): 0.443 | relative viability ([5]; first compound 0.01 µM): 0.54 | relative viability ([5]; first compound 0.03162 µM): 0.582 | relative viability ([5]; first compound 0.3162 µM): 0.514 | relative viability ([5]; first compound 1 µM): 0.555
